From ChEMBL document CHEMBL6071206, “Development of BODIPY FL SNS 032 as a Versatile Probe for Constitutive Androstane Receptor and Multiple Kinases” (ACS Med Chem Lett, 2024)
Activity calls are given as the source filed them. The calls are words filed in the database; no cut-off is given here.

Assays:
[1] = target: T1, Nuclear receptor subfamily 1 group I member 3 (Homo sapiens, UniProt Q14994); experiment: Inhibition of GST-tagged human CAR LBD incubated for 90 mins by TR-FRET assay
T1 sequence (Q14994 whole entry): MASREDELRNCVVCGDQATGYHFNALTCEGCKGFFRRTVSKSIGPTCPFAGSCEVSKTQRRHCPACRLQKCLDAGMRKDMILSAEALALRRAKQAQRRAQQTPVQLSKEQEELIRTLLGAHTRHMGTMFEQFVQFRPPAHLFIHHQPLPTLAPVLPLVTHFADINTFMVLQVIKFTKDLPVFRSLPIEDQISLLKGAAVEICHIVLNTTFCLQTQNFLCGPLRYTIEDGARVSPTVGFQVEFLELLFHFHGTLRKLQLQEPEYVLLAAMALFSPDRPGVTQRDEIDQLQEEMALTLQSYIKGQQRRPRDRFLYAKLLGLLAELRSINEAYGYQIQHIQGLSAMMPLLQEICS

[2] = target: T2, Glycogen synthase kinase-3 alpha (Homo sapiens, UniProt P49840); experiment: Inhibition of GST-tagged human GSK3A incubated for 90 mins by TR-FRET assay
[3] = target: T3, Mitogen-activated protein kinase 15 (Homo sapiens, UniProt Q8TD08); experiment: Inhibition of Flag/His-tagged human MAPK15 incubated for 90 mins by TR-FRET assay
T3 sequence (Q8TD08 whole entry): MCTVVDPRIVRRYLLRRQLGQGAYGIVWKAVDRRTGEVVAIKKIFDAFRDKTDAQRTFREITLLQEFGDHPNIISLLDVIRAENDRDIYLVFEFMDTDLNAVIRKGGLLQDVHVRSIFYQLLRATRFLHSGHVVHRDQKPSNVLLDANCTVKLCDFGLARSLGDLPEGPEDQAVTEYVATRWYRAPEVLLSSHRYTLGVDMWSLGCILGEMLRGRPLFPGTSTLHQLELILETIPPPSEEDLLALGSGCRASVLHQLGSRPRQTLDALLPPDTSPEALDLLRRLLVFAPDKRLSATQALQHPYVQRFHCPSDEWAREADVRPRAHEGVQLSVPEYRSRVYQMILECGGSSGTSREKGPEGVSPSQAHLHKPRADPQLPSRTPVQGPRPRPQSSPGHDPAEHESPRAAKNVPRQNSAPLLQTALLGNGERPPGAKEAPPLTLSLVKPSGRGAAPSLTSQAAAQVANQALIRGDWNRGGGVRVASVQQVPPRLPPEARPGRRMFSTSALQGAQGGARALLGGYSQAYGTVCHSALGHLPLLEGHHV

[4] = target: T4, Calcium/calmodulin-dependent protein kinase kinase 2 (Homo sapiens, UniProt Q96RR4); experiment: Inhibition of GST-tagged human CAMKK2 incubated for 90 mins by TR-FRET assay
Target sequence in this assay (Q96RR4 whole entry): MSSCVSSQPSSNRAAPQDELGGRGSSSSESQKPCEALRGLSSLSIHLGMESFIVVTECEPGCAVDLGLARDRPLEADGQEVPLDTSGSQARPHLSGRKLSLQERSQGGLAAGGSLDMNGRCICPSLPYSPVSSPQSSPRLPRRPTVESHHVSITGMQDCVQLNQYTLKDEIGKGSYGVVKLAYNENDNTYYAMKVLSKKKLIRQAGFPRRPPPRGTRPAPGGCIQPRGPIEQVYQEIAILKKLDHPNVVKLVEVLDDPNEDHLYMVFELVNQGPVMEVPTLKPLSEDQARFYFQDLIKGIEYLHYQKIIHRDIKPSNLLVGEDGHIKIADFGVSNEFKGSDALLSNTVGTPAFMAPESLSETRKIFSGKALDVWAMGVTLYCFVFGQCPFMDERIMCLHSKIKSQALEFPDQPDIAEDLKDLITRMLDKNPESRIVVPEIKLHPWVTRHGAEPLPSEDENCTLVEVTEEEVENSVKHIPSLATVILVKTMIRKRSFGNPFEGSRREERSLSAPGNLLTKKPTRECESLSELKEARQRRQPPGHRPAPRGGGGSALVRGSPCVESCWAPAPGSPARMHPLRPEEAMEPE

[5] = target: T2, Glycogen synthase kinase-3 alpha; experiment: Binding affinity to GST-tagged human GSK3A assessed as dissociation constant incubated for 90 mins by TR-FRET assay
[6] = target: T1, Nuclear receptor subfamily 1 group I member 3; experiment: Binding affinity to GST-tagged human CAR LBD assessed as dissociation constant incubated for 90 mins by TR-FRET assay
CDK9/cyclin T1 [7] = target: T5, CDK9/cyclin T1 (Homo sapiens, UniProt P50750); experiment: Binding affinity to His-tagged human CDK9/CycT1 assessed as dissociation constant incubated for 90 mins by TR-FRET assay; assay type: protein-complex assay
[8] = target: T1, Nuclear receptor subfamily 1 group I member 3; experiment: Binding affinity to GST-tagged human CAR LBD assessed as fold change in FRET signal at 125 nM incubated for 90 mins by TR-FRET assay relative to control; conditions: 1.5 h, 0.125 µM
[9] = target: T3, Mitogen-activated protein kinase 15; experiment: Binding affinity to Flag/His-tagged human MAPK15 assessed as dissociation constant incubated for 90 mins by TR-FRET assay
[10] = target: T6, Peripheral plasma membrane protein CASK (Homo sapiens, UniProt O14936); experiment: Binding affinity to GST-tagged human CASK assessed as dissociation constant incubated for 90 mins by TR-FRET assay
T6 sequence (O14936 whole entry): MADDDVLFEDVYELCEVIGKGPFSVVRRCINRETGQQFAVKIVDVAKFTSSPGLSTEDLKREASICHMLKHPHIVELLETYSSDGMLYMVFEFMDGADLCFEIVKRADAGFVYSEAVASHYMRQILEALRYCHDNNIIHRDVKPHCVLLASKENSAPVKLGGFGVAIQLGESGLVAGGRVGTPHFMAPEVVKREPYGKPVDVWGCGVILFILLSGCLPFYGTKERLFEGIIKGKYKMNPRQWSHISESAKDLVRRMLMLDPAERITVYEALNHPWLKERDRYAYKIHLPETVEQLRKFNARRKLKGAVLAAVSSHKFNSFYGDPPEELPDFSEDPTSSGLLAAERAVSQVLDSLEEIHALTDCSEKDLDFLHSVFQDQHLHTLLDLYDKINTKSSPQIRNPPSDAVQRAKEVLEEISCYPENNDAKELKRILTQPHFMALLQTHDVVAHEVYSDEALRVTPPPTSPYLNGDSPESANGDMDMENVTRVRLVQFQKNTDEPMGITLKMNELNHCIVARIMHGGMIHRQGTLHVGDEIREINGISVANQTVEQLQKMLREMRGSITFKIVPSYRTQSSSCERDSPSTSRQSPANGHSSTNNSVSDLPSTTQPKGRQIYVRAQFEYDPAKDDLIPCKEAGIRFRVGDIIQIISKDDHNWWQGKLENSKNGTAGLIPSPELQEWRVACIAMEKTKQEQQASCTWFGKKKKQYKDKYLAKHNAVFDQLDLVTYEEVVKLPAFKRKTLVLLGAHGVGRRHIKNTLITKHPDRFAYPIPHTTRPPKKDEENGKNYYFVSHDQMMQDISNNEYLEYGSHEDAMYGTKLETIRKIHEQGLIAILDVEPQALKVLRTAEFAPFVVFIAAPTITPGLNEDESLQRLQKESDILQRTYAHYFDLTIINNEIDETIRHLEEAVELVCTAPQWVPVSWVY

[11] = target: T1, Nuclear receptor subfamily 1 group I member 3; experiment: Binding affinity to GST-tagged human CAR LBD assessed as fold change in FRET signal at 298.2 nM incubated for 90 mins by TR-FRET assay relative to control; conditions: 1.5 h, 0.2982 µM
[12] = target: T1, Nuclear receptor subfamily 1 group I member 3; experiment: Inhibition of GST-tagged human CAR LBD incubated for 90 mins in presence of Cy5-PGC1-alpha by HTRF co-activator assay
[13] = target: T7, Dual specificity tyrosine-phosphorylation-regulated kinase 2 (Homo sapiens) (UniProt Q92630); experiment: Binding affinity to GST-tagged human DYRK2 incubated for 90 mins by TR-FRET assay
T7 sequence (whole entry): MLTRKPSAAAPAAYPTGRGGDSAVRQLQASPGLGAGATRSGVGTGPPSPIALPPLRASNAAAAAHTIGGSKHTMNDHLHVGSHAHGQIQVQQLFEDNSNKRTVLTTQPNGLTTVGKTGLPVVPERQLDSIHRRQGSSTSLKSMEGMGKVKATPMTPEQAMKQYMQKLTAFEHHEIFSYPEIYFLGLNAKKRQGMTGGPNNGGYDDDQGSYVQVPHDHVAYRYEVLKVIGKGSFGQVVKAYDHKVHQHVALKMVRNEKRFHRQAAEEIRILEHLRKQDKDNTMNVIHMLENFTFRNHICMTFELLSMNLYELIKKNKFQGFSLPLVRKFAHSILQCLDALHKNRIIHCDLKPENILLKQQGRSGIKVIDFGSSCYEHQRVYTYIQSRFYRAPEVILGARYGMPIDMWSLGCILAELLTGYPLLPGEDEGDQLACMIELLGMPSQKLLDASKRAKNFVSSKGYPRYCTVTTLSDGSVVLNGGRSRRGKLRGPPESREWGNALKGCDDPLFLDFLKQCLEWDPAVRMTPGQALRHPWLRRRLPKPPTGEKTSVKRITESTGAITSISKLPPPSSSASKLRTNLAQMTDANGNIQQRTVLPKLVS

[14] = target: T1, Nuclear receptor subfamily 1 group I member 3; experiment: Inhibition of GST-tagged human CAR LBD at […] incubated for 90 mins in presence of Cy5-PGC1-alpha by HTRF co-activator assay relative to control; conditions: 1.5 h, dose 3.3 µM, read-out: Imax
[15] = target: T4, Calcium/calmodulin-dependent protein kinase kinase 2; experiment: Binding affinity to GST-tagged human CAMKK2 assessed as dissociation constant incubated for 90 mins by TR-FRET assay
Target sequence in this assay (Q96RR4 whole entry): as the sequence (Q96RR4 whole entry) above

[16] = target: T1, Nuclear receptor subfamily 1 group I member 3; experiment: Inhibition of GST-tagged human CAR LBD at 90 uM incubated for 90 mins in presence of Cy5-PGC1-alpha by HTRF co-activator assay relative to control; conditions: 1.5 h, read-out: Imax
CDK9/cyclin T1 [17] = target: T5, CDK9/cyclin T1; experiment: Inhibition of His-tagged human CDK9/CycT1 incubated for 90 mins by TR-FRET assay; assay type: protein-complex assay
[18] = target: T1, Nuclear receptor subfamily 1 group I member 3; experiment: Inhibition of GST-tagged human CAR LBD at 100 uM incubated for 90 mins by TR-FRET assay relative to control; conditions: 1.5 h, read-out: Imax
[19] = target: T1, Nuclear receptor subfamily 1 group I member 3; experiment: Inhibition of GST-tagged human CAR LBD at 100 uM incubated for 90 mins in presence of Cy5-PGC1-alpha by HTRF co-activator assay relative to control; conditions: 1.5 h, read-out: Imax
[20] = target: T8, Peripheral plasma membrane protein CASK (Homo sapiens) (UniProt O14936); experiment: Inhibition of GST-tagged human CASK at 90 uM incubated for 90 mins by TR-FRET assay relative to control
T8 sequence (whole entry): T6 sequence (O14936 whole entry)

[21] = target: T8, Peripheral plasma membrane protein CASK (Homo sapiens); experiment: Inhibition of GST-tagged human CASK at 30 uM incubated for 90 mins by TR-FRET assay relative to control
[22] = target: CDK9/cyclin T1 (Homo sapiens) (UniProt O60563+P50750); experiment: Inhibition of His-tagged human CDK9/CycT1 incubated for 90 mins by TR-FRET assay relative to control; assay type: protein-complex assay
[23] = target: T4, Calcium/calmodulin-dependent protein kinase kinase 2; experiment: Binding affinity to GST-tagged human CAMKK2 assessed as fold change in FRET signal at 30 uM incubated for 90 mins by TR-FRET assay relative to control
Target sequence in this assay (Q96RR4 2-588 limits assumed): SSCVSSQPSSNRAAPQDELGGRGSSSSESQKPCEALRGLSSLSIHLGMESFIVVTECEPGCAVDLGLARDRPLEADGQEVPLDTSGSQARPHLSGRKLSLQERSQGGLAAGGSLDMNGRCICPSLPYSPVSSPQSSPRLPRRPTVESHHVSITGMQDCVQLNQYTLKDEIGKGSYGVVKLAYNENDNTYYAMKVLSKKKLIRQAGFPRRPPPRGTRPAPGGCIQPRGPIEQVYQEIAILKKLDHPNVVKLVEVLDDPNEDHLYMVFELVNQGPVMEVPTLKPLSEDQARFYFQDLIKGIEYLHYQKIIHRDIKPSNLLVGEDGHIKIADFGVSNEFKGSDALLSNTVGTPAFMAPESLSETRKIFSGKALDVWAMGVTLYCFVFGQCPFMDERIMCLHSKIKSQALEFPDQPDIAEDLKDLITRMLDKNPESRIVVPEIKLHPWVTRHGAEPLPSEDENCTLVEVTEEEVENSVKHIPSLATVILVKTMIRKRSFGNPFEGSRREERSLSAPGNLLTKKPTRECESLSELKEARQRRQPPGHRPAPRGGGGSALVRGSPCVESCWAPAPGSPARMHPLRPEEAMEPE

[24] = target: T1, Nuclear receptor subfamily 1 group I member 3; experiment: Inhibition of GST-tagged human CAR LBD at 3 uM incubated for 90 mins in presence of Cy5-PGC1-alpha by HTRF co-activator assay relative to control; conditions: 1.5 h, read-out: Imax
[25] = target: T1, Nuclear receptor subfamily 1 group I member 3; experiment: Inhibition of GST-tagged human CAR LBD assessed as FRET signal stability measured for 90 to 180 mins incubated for 90 mins by TR-FRET assay; conditions: time 90-180 min
[26] = target: T1, Nuclear receptor subfamily 1 group I member 3; experiment: Inhibition of GST-tagged human CAR LBD at 30 uM incubated for 90 mins in presence of Cy5-PGC1-alpha by HTRF co-activator assay relative to control; conditions: 1.5 h, read-out: Imax

T2 sequence (P49840 whole entry): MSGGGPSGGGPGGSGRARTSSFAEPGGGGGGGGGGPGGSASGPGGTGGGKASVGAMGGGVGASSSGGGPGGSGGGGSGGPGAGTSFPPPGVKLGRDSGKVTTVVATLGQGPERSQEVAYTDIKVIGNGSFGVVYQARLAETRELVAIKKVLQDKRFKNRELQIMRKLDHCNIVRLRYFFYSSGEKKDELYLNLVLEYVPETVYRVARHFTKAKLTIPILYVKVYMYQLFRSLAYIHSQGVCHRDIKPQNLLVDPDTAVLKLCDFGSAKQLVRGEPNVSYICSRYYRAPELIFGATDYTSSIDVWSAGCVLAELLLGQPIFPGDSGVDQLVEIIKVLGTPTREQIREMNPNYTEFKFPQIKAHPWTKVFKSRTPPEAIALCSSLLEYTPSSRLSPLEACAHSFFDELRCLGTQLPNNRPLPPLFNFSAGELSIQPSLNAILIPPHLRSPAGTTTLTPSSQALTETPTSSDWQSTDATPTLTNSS
T5 sequence (O60563 whole entry, the tested form may be a part): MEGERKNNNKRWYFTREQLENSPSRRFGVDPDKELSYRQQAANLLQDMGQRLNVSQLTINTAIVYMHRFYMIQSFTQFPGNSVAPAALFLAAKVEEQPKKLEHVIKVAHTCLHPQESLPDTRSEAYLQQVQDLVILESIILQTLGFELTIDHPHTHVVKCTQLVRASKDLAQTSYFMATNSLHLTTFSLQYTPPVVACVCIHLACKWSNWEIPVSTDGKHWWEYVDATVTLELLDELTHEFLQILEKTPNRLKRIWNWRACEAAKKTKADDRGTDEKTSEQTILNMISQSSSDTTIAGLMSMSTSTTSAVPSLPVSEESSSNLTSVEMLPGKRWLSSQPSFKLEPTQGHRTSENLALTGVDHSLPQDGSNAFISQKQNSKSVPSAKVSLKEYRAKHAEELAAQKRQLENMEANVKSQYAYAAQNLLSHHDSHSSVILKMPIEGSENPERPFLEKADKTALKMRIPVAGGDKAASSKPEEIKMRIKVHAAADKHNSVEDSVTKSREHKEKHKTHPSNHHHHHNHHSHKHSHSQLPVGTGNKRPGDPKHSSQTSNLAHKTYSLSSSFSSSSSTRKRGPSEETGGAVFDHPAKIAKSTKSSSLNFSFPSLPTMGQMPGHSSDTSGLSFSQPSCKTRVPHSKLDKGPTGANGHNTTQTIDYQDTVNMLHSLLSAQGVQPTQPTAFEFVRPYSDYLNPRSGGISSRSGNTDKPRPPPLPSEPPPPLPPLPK
T5 sequence (P50750 whole entry, the tested form may be a part): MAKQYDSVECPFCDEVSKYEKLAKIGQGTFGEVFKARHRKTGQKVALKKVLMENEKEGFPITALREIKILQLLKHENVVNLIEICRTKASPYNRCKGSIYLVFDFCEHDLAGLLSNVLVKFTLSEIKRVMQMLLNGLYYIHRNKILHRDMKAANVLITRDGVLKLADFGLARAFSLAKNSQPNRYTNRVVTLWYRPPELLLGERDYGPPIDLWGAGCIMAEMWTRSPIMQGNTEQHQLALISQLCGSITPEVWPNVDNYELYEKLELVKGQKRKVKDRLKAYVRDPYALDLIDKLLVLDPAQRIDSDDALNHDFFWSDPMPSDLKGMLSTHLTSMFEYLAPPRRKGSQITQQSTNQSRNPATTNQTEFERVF

Cc1oc2ccccc2c1CNC(=O)NCc1cccs1
IC50 [1]: 260 nM

O=S(=O)(c1ccccc1)N(CC(F)(F)F)c1ccc(C(O)(C(F)(F)F)C(F)(F)F)cc1 [T091317]
IC50 [1]: 651 nM

CN1CC[C@@H](c2c(O)cc(O)c3c(=O)cc(-c4ccccc4Cl)oc23)[C@@H]1CO
IC50 [2]: 270 nM
IC50 [3]: 706 nM
IC50 [4]: 6500 nM

Cc1cc(C)n2c1C=C1C=CC(CCC(=O)N3CCC(C(=O)Nc4ncc(SCc5ncc(C(C)(C)C)o5)s4)CC3)=[N+]1[B-]2(F)F
Kd [5]: 4.5 nM
Kd [6]: 300 nM
Kd (CDK9/cyclin T1 [7]): 5.1 nM
fold change (FC) [8]: 9.7
Kd [9]: 340 nM
Kd [10]: 550 nM
fold change (FC) [11]: 9.1
IC50 [12]: 224 nM
Activity [13]: inactive
inhibition at […] [14]: 95.9%
Kd [15]: 530 nM

CC(C)(C)c1cnc(CSc2cnc(NC(=O)C3CCN(CC(=O)NCCOCCOCCOCCNc4cccc5c4C(=O)N(C4CCC(=O)NC4=O)C5=O)CC3)s2)o1 (stereo unspecified)
IC50 [2]: 8.2 nM
inhibition at 90 µM [16]: 75.4%
EC50 [1]: 3100 nM
IC50 [3]: 79.1 nM
IC50 [4]: 2700 nM
IC50 (CDK9/cyclin T1 [17]): 5.6 nM
IC50 [12]: 6600 nM
inhibition at 100 µM [18]: 43.4%

O=C(Nc1ccc2c(c1)N(C(=O)Cn1cccc1)c1ccccc1CC2)OC1CCCCC1
IC50 [1]: 12.8 nM

C[C@]12CC[C@@H](O)C[C@@H]1CC[C@@H]1[C@@H]2CC[C@]2(C)C=CC[C@@H]12 [ANDROSTENOL]
IC50 [1]: 339 nM
inhibition at 100 µM [19]: 84.7%
IC50 [12]: 250 nM

COc1cc(F)ccc1-c1ncnc(Nc2cccc(C[S@](C)(=N)=O)c2)n1 [ATUVECICLIB]
IC50 [2]: 29.1 nM
inhibition [20]: 27.3%
IC50 [3]: 2600 nM
IC50 [4]: 1200 nM

Cn1cc(C2=C(c3cn(CCCSC(=N)N)c4ccccc34)C(=O)NC2=O)c2ccccc21 [BISINDOLYLMALEIMIDE IX]
IC50 [2]: 0.7 nM
IC50 [3]: 0.9 nM
IC50 [4]: 161 nM

CC(C)(C)c1cnc(CSc2cnc(NC(=O)C3CCNCC3)s2)o1 [BMS-387032]
inhibition at 90 µM [16]: 26.4%
EC50 [1]: 51100 nM
inhibition at 100 µM [18]: 50.8%

COc1cc(N2CCOCC2)ccc1Nc1ncc(F)c(Nc2ccccc2NS(C)(=O)=O)n1
IC50 [2]: 20200 nM
inhibition [21]: 40.7%
IC50 [3]: 2800 nM
IC50 [4]: 51.6 nM
inhibition [22]: < 20%
fold change (FC) [23]: 2.6

Clc1ccc(-c2nc3sccn3c2/C=N/OCc2ccc(Cl)c(Cl)c2)cc1
inhibition at 3 µM [24]: 100%
inhibition (INH) [25]: Active

CCOC(=O)Nc1ccc2c(c1)N(C(=O)CN(CC)CC)c1ccccc1CC2
IC50 [1]: 162 nM
inhibition at 30 µM [26]: 100%
IC50 [12]: 258 nM

CC[C@H](Nc1nc(NCc2cnc(C)cc2C)c2ncn(C(C)C)c2n1)[C@@H](C)O [CYC-065]
IC50 [2]: 11100 nM
IC50 [3]: 386 nM
IC50 [4]: 13200 nM

CN1CC[C@H](c2c(O)cc(O)c3c(=O)cc(-c4ccccc4Cl)oc23)[C@H](O)C1 [ALVOCIDIB]
IC50 [3]: 164 nM
Ki [3]: 120 nM
IC50 [4]: 296 nM
Ki [4]: 239 nM
